From ChEMBL document CHEMBL5052856, “Inhibitors of apol1 and methods of using same” (2021)

Assays:
[1] = target: Apolipoprotein L1 (Homo sapiens, UniProt O14791); assay: Inhibition of APOL1 G1 variant in human HEK293-T-REx cells measured by Thallium assay; type: cell-based
[2] = test system: Trypanosoma brucei brucei; assay: Antitrypanosomal activity against Trypanosoma brucei brucei assessed as trypanosome lysis using recombinant APOL1 protein G1 variant and measured by Alamar blue based fluoresence assay; type: functional, organism-based

Row | SMILES | IC50 [1] | IC50 [2]
1 | O=C([C@H]1C[C@H](c2c(-c3ccc(F)cc3)[nH]c3c(F)cc(F)cc32)C1)N1CCC[C@@H](CO)C1 | > 1 µM | > 1 µM
2 | NC(=O)CC1CC(c2c(-c3ccc(F)cc3)[nH]c3c(F)cc(F)cc23)C1 (centres undefined) | < 0.25 µM | < 0.25 µM
3 | O=C([C@H]1C[C@H](c2c(-c3ccc(F)cc3)[nH]c3c(F)cc(F)cc32)C1)N1CCOCC1CCO (some centres undefined) | > 1 µM | > 1 µM
4 | O=C1CC[C@H](NC(=O)[C@H]2C[C@H](c3c(-c4ccc(F)cc4)[nH]c4c(F)cc(F)cc43)C2)C1 | 0.00025 µM | 0.25 µM
5 | CC1(O)CN(C(=O)[C@H]2C[C@H](c3c(-c4ccc(F)cc4)[nH]c4c(F)cc(F)cc43)C2)C1 | 0.00025 µM | 0.25 µM
6 | CC(C)[C@@H](CO)NC(=O)[C@H]1C[C@H](c2c(-c3ccc(F)cc3)[nH]c3c(F)cc(F)cc32)C1 | > 1 µM | > 1 µM
7 | O=C(N[C@H](CO)C(F)(F)F)[C@H]1C[C@H](c2c(-c3ccc(F)cc3)[nH]c3c(F)cc(F)cc32)C1 | 0.00025 µM | < 0.25 µM
8 | O=C(NCc1cnoc1)[C@H]1C[C@H](c2c(-c3ccc(F)cc3)[nH]c3c(F)cc(F)cc32)C1 | 0.00025 µM | < 0.25 µM
9 | CC(O)(CO)CNC(=O)[C@H]1C[C@H](c2c(-c3ccc(F)cc3)[nH]c3c(F)cc(F)cc32)C1 (some centres undefined) | > 1 µM | > 1 µM
10 | CC(C)(O)C1CN(C(=O)[C@H]2C[C@H](c3c(-c4ccc(F)cc4)[nH]c4c(F)cc(F)cc43)C2)C1 | > 1 µM | > 1 µM
11 | O=C1NCCC1NC(=O)[C@H]1C[C@H](c2c(-c3ccc(F)cc3)[nH]c3c(F)cc(F)cc32)C1 (some centres undefined) | < 0.25 µM | < 0.25 µM
12 | CO[C@H]1CCN(C(=O)[C@H]2C[C@H](c3c(-c4ccc(F)cc4)[nH]c4c(F)cc(F)cc43)C2)C1 | > 1 µM | > 1 µM
13 | CC(=O)NC1CCCN(C(=O)[C@H]2C[C@H](c3c(-c4ccc(F)cc4)[nH]c4c(F)cc(F)cc43)C2)C1 (some centres undefined) | > 1 µM | > 1 µM
14 | CC(C#N)(CO)NC(=O)[C@H]1C[C@H](c2c(-c3ccc(F)cc3)[nH]c3c(F)cc(F)cc32)C1 (some centres undefined) | 0.00025 µM | < 0.25 µM
15 | O=C([C@H]1C[C@H](c2c(-c3ccc(F)cc3)[nH]c3c(F)cc(F)cc32)C1)N1CCCC[C@H]1CO | > 1 µM | 0.25 µM
16 | CC[C@@H](CO)NC(=O)[C@H]1C[C@H](c2c(-c3ccc(F)cc3)[nH]c3c(F)cc(F)cc32)C1 | 0.00025 µM | < 0.25 µM
17 | O=C([C@H]1C[C@H](c2c(-c3ccc(F)cc3)[nH]c3c(F)cc(F)cc32)C1)N1CCN[C@H](CO)C1 | > 1 µM | 0.25 µM
18 | O=C(NCc1nnco1)[C@H]1C[C@H](c2c(-c3ccc(F)cc3)[nH]c3c(F)cc(F)cc32)C1 | 0.00025 µM | < 0.25 µM
19 | O=C([C@H]1C[C@H](c2c(-c3ccc(F)cc3)[nH]c3c(F)cc(F)cc32)C1)N1CCN(CCO)CC1 | > 1 µM | > 1 µM
20 | O=C(NCCO)[C@H]1C[C@H](c2c(-c3ccc(F)cc3)[nH]c3c(F)cc(F)cc32)C1 | < 0.25 µM | < 0.25 µM
21 | Cc1cnc(NC(=O)[C@H]2C[C@H](c3c(-c4ccc(F)cc4)[nH]c4c(F)cc(F)cc43)C2)o1 | ≥ 0.25 µM | < 0.25 µM
22 | O=C(N[C@H]1C[C@H](O)C1)[C@H]1C[C@H](c2c(-c3ccc(F)cc3)[nH]c3c(F)cc(F)cc32)C1 | > 1 µM | 0.25 µM
23 | CN(C)C[C@@H]1CCN(C(=O)[C@H]2C[C@H](c3c(-c4ccc(F)cc4)[nH]c4c(F)cc(F)cc43)C2)C[C@H]1O | > 1 µM | 0.25 µM
24 | NC(=O)C1CCN(C(=O)[C@H]2C[C@H](c3c(-c4ccc(F)cc4)[nH]c4c(F)cc(F)cc43)C2)CC1 | > 1 µM | > 1 µM

Row | SMILES | IC50 [1] | IC50 [2]
25 | O=C(NC[C@H](O)C(F)(F)F)[C@H]1C[C@H](c2c(-c3ccc(F)cc3)[nH]c3c(F)cc(F)cc32)C1 | 0.00025 µM | < 0.25 µM
26 | CS(=O)(=O)CCNC(=O)[C@H]1C[C@H](c2c(-c3ccc(F)cc3)[nH]c3c(F)cc(F)cc32)C1 | < 0.25 µM | > 1 µM
27 | NC(=O)[C@H]1CCCN1C(=O)[C@H]1C[C@H](c2c(-c3ccc(F)cc3)[nH]c3c(F)cc(F)cc32)C1 | 0.00025 µM | > 1 µM
28 | CN(C(=O)[C@H]1C[C@H](c2c(-c3ccc(F)cc3)[nH]c3c(F)cc(F)cc32)C1)C1COCC1O (some centres undefined) | > 1 µM | > 1 µM
29 | COCCNC(=O)[C@H]1C[C@H](c2c(-c3ccc(F)cc3)[nH]c3c(F)cc(F)cc32)C1 | > 1 µM | 0.25 µM
30 | O=C([C@H]1C[C@H](c2c(-c3ccc(F)cc3)[nH]c3c(F)cc(F)cc32)C1)N1CC(n2cccn2)C1 | > 1 µM | > 1 µM
31 | O=C(NC1(CO)CCOC1)[C@H]1C[C@H](c2c(-c3ccc(F)cc3)[nH]c3c(F)cc(F)cc32)C1 (some centres undefined) | < 0.25 µM | < 0.25 µM
32 | C[C@]1(NC(=O)[C@H]2C[C@H](c3c(-c4ccc(F)cc4)[nH]c4c(F)cc(F)cc43)C2)C[C@@H](O)C1 | 0.00025 µM | 0.25 µM
33 | O=C(NCCOCCO)[C@H]1C[C@H](c2c(-c3ccc(F)cc3)[nH]c3c(F)cc(F)cc32)C1 | < 0.25 µM | < 0.25 µM
34 | O=C(OC1CN(C(=O)C2CC(c3c(-c4ccc(F)cc4)[nH]c4c(F)cc(F)cc34)C2)C1)C1CCOCC1 (trans isomer) | 0.00025 µM | < 0.25 µM
35 | O=C1CCC(NC(=O)[C@H]2C[C@H](c3c(-c4ccc(F)cc4)[nH]c4c(F)cc(F)cc43)C2)C1 (some centres undefined) | > 1 µM | > 1 µM
36 | O=C1CN(C(=O)[C@H]2C[C@H](c3c(-c4ccc(F)cc4)[nH]c4c(F)cc(F)cc43)C2)CCN1 | > 1 µM | > 1 µM
37 | O=C([C@H]1C[C@H](c2c(-c3ccc(F)cc3)[nH]c3c(F)cc(F)cc32)C1)N1CC[C@H](CO)[C@H](O)C1 | > 1 µM | > 1 µM
38 | CC1(C)CN(C(=O)[C@H]2C[C@H](c3c(-c4ccc(F)cc4)[nH]c4c(F)cc(F)cc43)C2)CCC1O (some centres undefined) | > 1 µM | > 1 µM
39 | CC(C)(O)C(O)CNC(=O)[C@H]1C[C@H](c2c(-c3ccc(F)cc3)[nH]c3c(F)cc(F)cc32)C1 (some centres undefined) | > 1 µM | 0.25 µM
40 | Cc1noc(CNC(=O)[C@H]2C[C@H](c3c(-c4ccc(F)cc4)[nH]c4c(F)cc(F)cc43)C2)n1 | < 0.25 µM | < 0.25 µM
41 | NC(=O)[C@H]1C[C@H](c2c(-c3ccc(F)cc3)[nH]c3c(F)cc(F)cc32)C1 | 0.00025 µM | < 0.25 µM
42 | NC(=O)CNCC1CC(c2c(-c3ccc(F)cc3)[nH]c3c(F)cc(F)cc23)C1 (centres undefined) | < 0.25 µM | < 0.25 µM
43 | C[C@@H](CO)NC(=O)[C@H]1C[C@H](c2c(-c3ccc(F)cc3)[nH]c3c(F)cc(F)cc32)C1 | < 0.25 µM | < 0.25 µM
44 | C[C@H](CO)N(C)C(=O)[C@H]1C[C@H](c2c(-c3ccc(F)cc3)[nH]c3c(F)cc(F)cc32)C1 (mixture of isomers) | 0.00025 µM | < 0.25 µM
45 | NC(=O)[C@@H](CO)NC(=O)[C@H]1C[C@H](c2c(-c3ccc(F)cc3)[nH]c3c(F)cc(F)cc32)C1 | < 0.25 µM | < 0.25 µM
46 | O=C(NC1(CO)CC1)[C@H]1C[C@H](c2c(-c3ccc(F)cc3)[nH]c3c(F)cc(F)cc32)C1 | 0.00025 µM | < 0.25 µM
47 | O=C(N[C@@H]1CCC[C@H]1O)[C@H]1C[C@H](c2c(-c3ccc(F)cc3)[nH]c3c(F)cc(F)cc32)C1 | > 1 µM | > 1 µM
